According to patent publication US8575158B2, “1-phenyl-substituted heterocyclyl derivatives and their use as prostaglandin D2 receptor modulators” (Actelion Pharmaceuticals Ltd., priority 2010, dated 2013):
pIC50: −log10 of the molar value.

Target: T1, hCRTH2 receptor (Homo sapiens, UniProt Q9Y5Y4)
T1 construct: expressed in transfected cells; host or cells: HEK293
T1 sequence (Q9Y5Y4 1-395): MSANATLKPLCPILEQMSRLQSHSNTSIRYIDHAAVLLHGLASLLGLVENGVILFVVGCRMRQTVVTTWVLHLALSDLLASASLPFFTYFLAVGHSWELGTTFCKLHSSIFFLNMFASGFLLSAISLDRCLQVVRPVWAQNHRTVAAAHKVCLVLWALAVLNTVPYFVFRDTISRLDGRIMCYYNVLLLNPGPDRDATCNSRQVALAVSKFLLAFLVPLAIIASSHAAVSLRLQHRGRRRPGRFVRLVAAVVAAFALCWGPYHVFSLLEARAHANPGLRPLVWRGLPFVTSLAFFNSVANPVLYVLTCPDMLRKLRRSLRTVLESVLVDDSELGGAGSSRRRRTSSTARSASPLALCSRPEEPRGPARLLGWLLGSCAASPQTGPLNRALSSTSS
Assay: Radioligand displacement assay (3H-PGD2) on hCRTH2 receptor membranes
Format: binding
Conditions: antagonistic activity; 3H-PGD2 displacement on HEK293-hCRTH2 membrane fragments
Method: First, recombinant HEK293-hCRTH2 cells were detached from culture plates into 5 ml buffer A/plate (Buffer A: 5 mM Tris, 1 mM MgCl2-6H2O pH=7.4) using a rubber policeman. Cells were then transferred into centrifugation tubes and centrifuged for 5 min at 400 g. The cell pellet was resuspended in the same buffer and tubes were frozen at −80° C. Cells were thawed and membrane fragments were generated by homogenization using a polytron homogenizer (30 seconds). The membrane fragments were then centrifuged at 3000 g for 20 minutes and resuspended in buffer C (Buffer C: 75 mM Tris, 25 mM MgCl2, 250 mM Saccharose pH 7.4). Aliquots of membrane fragments were stored at −20° C.
Binding assay was performed in a final assay volume of 250 μl. First, 25 μl of test compound, previously diluted in Binding-Buffer (Binding-Buffer: 50 mM Tris-Base, 100 mM NaCl, 1 mM EDTA, 0.1% BSA (protease free), 0.01% NaN3, 10 mM MnCl2, pH 7.0) was placed into each well. After addition of 75 μl Binding-Buffer, 50 μl of the radioligand ^3H-PGD2 (at 2.5 nM (220.000 dpm/well) from ANAWA ART0662) was added to each well. Binding assay was started by addition of 100 μl CRTH2 membrane fragments, reaching a final concentration of 20 μg/well. For non-specific binding, PGD2 was added to the reaction mixture to […] final concentration.
This assay mix was incubated for 90 minutes at room temperature and then filtered through a GF/C filter 96-well plate which was pre-soaked for 3 hours in 0.5% polyethyleneimine (PEI). The filter-wells were washed three times with ice cold Binding-Buffer. Then, 40 μl of Microscint-40 (Packard) was added to each well and the retained radioactivity quantified in a Topcount (Packard).

Row | Compound | pIC50
1 | O=C(O)COc1ccc(F)cc1C1c2cccc(Cl)c2CCN1C(=O)OCc1ccccc1 (racemic) [Example 38, (±)-1-(2-Carboxymethoxy-5-fluoro-phenyl)-5-chloro-3,4-dihydro-1H-isoquinoline-2-carboxylic acid benzyl ester] | 7.68
2 | O=C(O)COc1ccc(F)cc1C1c2ccc(F)c(Br)c2CCN1C(=O)OCc1ccccc1 (racemic) [Example 40, (±)-5-Bromo-1-(2-carboxymethoxy-5-fluoro-phenyl)-6-fluoro-3,4-dihydro-1H-isoquinoline-2-carboxylic acid benzyl ester] | 7.64
3 | O=C(O)COc1ccc(Cl)cc1C1c2cc(F)cc(F)c2CCN1C(=O)OCc1ccccc1 (racemic) [Example 43, (±)-1-(2-Carboxymethoxy-5-chloro-phenyl)-5,7-difluoro-3,4-dihydro-1H-isoquinoline-2-carboxylic acid benzyl ester] | 8.31
4 | N#Cc1ccc(OCC(=O)O)c(C2c3cc(F)cc(F)c3CCN2C(=O)OCc2ccccc2)c1 (racemic) [Example 44, (±)-1-(2-Carboxymethoxy-5-cyano-phenyl)-5,7-difluoro-3,4-dihydro-1H-isoquinoline-2-carboxylic acid benzyl ester] | 8.08
5 | O=C(O)COc1ccc(F)cc1C1c2ccccc2CCN1C(=O)Cc1noc2ccccc12 (racemic) [Example 45, (±)-{2-[2-(2-Benzo[d]isoxazol-3-yl-acetyl)-1,2,3,4-tetrahydro-isoquinolin-1-yl]-4-fluoro-phenoxy}-acetic acid] | 6.43
6 | CC(C)(CC(=O)N1CCc2ccccc2C1c1cc(F)ccc1OCC(=O)O)c1ccccc1 (racemic) [Example 46, (±)-{4-Fluoro-2-[2-(3-methyl-3-phenyl-butyryl)-1,2,3,4-tetrahydro-isoquinolin-1-yl]-phenoxy}-acetic acid] | 6.04
7 | O=C(O)COc1ccc(F)cc1C1c2ccccc2CCN1C(=O)Cc1cccc2ccccc12 (racemic) [Example 47, (±)-{4-Fluoro-2-[2-(2-naphthalen-1-yl-acetyl)-1,2,3,4-tetrahydro-isoquinolin-1-yl]-phenoxy}-acetic acid] | 6.70
8 | O=C(O)COc1ccc(F)cc1C1c2ccccc2CCN1C(=O)Cc1ccc2cccnc2c1 (racemic) [Example 48, (±)-{4-Fluoro-2-[2-(2-quinolin-7-yl-acetyl)-1,2,3,4-tetrahydro-isoquinolin-1-yl]-phenoxy}-acetic acid] | 6.54
9 | O=C(O)COc1ccc(F)cc1C1c2ccccc2CCN1C(=O)CCOc1ccccc1F (racemic) [Example 54] | 7.49
10 | Cc1nnnn1-c1ccc(CC(=O)N2CCc3ccccc3C2c2cc(F)ccc2OCC(=O)O)cc1 (racemic) [Example 55, (±)-[4-Fluoro-2-(2-{2-[4-(5-methyl-tetrazol-1-yl)-phenyl]-acetyl}-1,2,3,4-tetrahydro-isoquinolin-1-yl)-phenoxy]-acetic acid] | 6.10
11 | Cc1nc(CC(=O)N2CCc3ccccc3C2c2cc(F)ccc2OCC(=O)O)cs1 (racemic) [Example 57, (±)-(4-Fluoro-2-{2-[2-(2-methyl-thiazol-4-yl)-acetyl]-1,2,3,4-tetrahydro-isoquinolin-1-yl}-phenoxy)-acetic acid] | 6.14
12 | O=C(O)COc1ccc(F)cc1C1c2ccccc2CCN1C(=O)Cc1csc2ccccc12 (racemic) [Example 58, (±)-{2-[2-(2-Benzo[b]thiophen-3-yl-acetyl)-1,2,3,4-tetrahydro-isoquinolin-1-yl]-4-fluoro-phenoxy}-acetic acid] | 6.91
13 | O=C(O)COc1ccc(F)cc1C1c2ccccc2CCN1C(=O)CCc1nc2ccccc2s1 (racemic) [Example 59, (±)-{2-[2-(3-Benzothiazol-2-yl-propionyl)-1,2,3,4-tetrahydro-isoquinolin-1-yl]-4-fluoro-phenoxy}-acetic acid] | 6.10
14 | COc1ccc2[nH]cc(CCC(=O)N3CCc4ccccc4C3c3cc(F)ccc3OCC(=O)O)c2c1 (racemic) [Example 64, (±)-(4-Fluoro-2-{2-[3-(5-methoxy-1H-indol-3-yl)-propionyl]-1,2,3,4-tetrahydro-isoquinolin-1-yl}-phenoxy)-acetic acid] | 7.30
15 | Cn1cc(CCC(=O)N2CCc3ccccc3C2c2cc(F)ccc2OCC(=O)O)c2ccccc21 (racemic) [Example 66, (±)-(4-Fluoro-2-{2-[3-(1-methyl-1H-indol-3-yl)-propionyl]-1,2,3,4-tetrahydro-isoquinolin-1-yl}-phenoxy)-acetic acid] | 7.56

Continued by rising pIC50, values first:

Row | pIC50 | Compound
16 | 6.06 | O=C(O)COc1ccc(F)cc1C1c2ccccc2CCN1C(=O)CCc1c(Cl)cccc1Cl (racemic) [Example 53, (±)-(2-{2-[3-(2,6-Dichloro-phenyl)-propionyl]-1,2,3,4-tetrahydro-isoquinolin-1-yl}-4-fluoro-phenoxy)-acetic acid]
17 | 6.06 | O=C(O)COc1ccc(F)cc1C1c2ccccc2CCN1C(=O)CN1Cc2ccccc2C1 (racemic) [Example 63, (±)-{2-[2-(2-1,3-Dihydro-isoindol-2-yl-acetyl)-1,2,3,4-tetrahydro-isoquinolin-1-yl]-4-fluoro-phenoxy}-acetic acid]
18 | 6.07 | O=C(O)COc1ccc(F)cc1C1c2ccccc2CCN1C(=O)Cn1ccc2ccccc21 (racemic) [Example 61, (±)-{4-Fluoro-2-[2-(2-indol-1-yl-acetyl)-1,2,3,4-tetrahydro-isoquinolin-1-yl]-phenoxy}-acetic acid]
19 | 6.10 | O=C(O)COc1ccc(F)cc1C1c2ccccc2CCN1C(=O)Cc1nc2ccccc2[nH]1 (racemic) [Example 62]
20 | 6.13 | O=C(O)COc1ccc(F)cc1C1c2ccccc2CCN1C(=O)CCN1C(=O)COc2ccc(Cl)cc21 (racemic) [Example 56, (±)-(2-{2-[3-(6-Chloro-3-oxo-2,3-dihydro-benzo[1,4]oxazin-4-yl)-propionyl]-1,2,3,4-tetrahydro-isoquinolin-1-yl}-4-fluoro-phenoxy)-acetic acid]
21 | 6.22 | CCn1c(C)c(CCC(=O)N2CCc3ccccc3C2c2cc(F)ccc2OCC(=O)O)c2ccccc21 (racemic) [Example 52, (±)-(2-{2-[3-(1-Ethyl-2-methyl-1H-indol-3-yl)-propionyl]-1,2,3,4-tetrahydro-isoquinolin-1-yl}-4-fluoro-phenoxy)-acetic acid]
22 | 6.24 | O=C(O)COc1ccc(F)cc1C1c2ccccc2CCN1C(=O)Cc1ccc(-c2ccccc2)cc1 (racemic) [Example 60]
23 | 6.72 | Cc1[nH]c2ccccc2c1CCC(=O)N1CCc2ccccc2C1c1cc(F)ccc1OCC(=O)O (racemic) [Example 65, (±)-(4-Fluoro-2-{2-[3-(2-methyl-1H-indol-3-yl)-propionyl]-1,2,3,4-tetrahydro-isoquinolin-1-yl}-phenoxy)-acetic acid]
24 | 6.74 | O=C(O)COc1ccc(F)cc1C1c2ccccc2CCN1C(=O)Cc1ccc2c(c1)OCCO2 (racemic) [Example 50]
25 | 7.45 | O=C(O)COc1ccc(F)cc1C1c2ccccc2CCN1C(=O)Cc1ccc2ncccc2c1 (racemic) [Example 49, (±)-{4-Fluoro-2-[2-(2-quinolin-6-yl-acetyl)-1,2,3,4-tetrahydro-isoquinolin-1-yl]-phenoxy}-acetic acid]
26 | 7.52 | O=C(O)COc1ccc(F)cc1C1c2ccccc2CCN1C(=O)CCc1c[nH]c2ccccc12 (racemic) [Example 51, (±)-{4-Fluoro-2-[2-(3-1H-indol-3-yl-propionyl)-1,2,3,4-tetrahydro-isoquinolin-1-yl]-phenoxy}-acetic acid]
27 | 7.61 | O=C(O)COc1ccc(F)cc1C1c2cc(F)ccc2CCN1C(=O)OCc1ccccc1 (racemic) [Example 41, (±)-1-(2-Carboxymethoxy-5-fluoro-phenyl)-7-fluoro-3,4-dihydro-1H-isoquinoline-2-carboxylic acid benzyl ester]
28 | 7.65 | Cc1cccc2c1CCN(C(=O)OCc1ccccc1)C2c1cc(F)ccc1OCC(=O)O (racemic) [Example 39, (±)-1-(2-Carboxymethoxy-5-fluoro-phenyl)-5-methyl-3,4-dihydro-1H-isoquinoline-2-carboxylic acid benzyl ester]
29 | 8.16 | O=C(O)COc1ccc(F)cc1C1c2cc(F)cc(F)c2CCN1C(=O)OCc1ccccc1 (racemic) [Example 42, (±)-1-(2-Carboxymethoxy-5-fluoro-phenyl)-5,7-difluoro-3,4-dihydro-1H-isoquinoline-2-carboxylic acid benzyl ester]
